Measured values reported in patent publication US11547761B1, “Antibody adjuvant conjugates” (The Board of Trustees of the Leland Stanford Junior …, priority 2016, dated 2023).
“Also recorded” adds a separate entry of the source.

Experiments:
Type in all cases: cell-based
[1] = test system: human antigen presenting cells; experiment: Stimulation of human antigen presenting cells with free adjuvants, flow cytometry; details: peripheral blood APCs, 10-fold serial dilutions, 18 hours, 37° C.
Experimental: Peripheral blood antigen presenting cells (APCs) were stimulated with 10-fold serial dilutions of R848, Compound 2 or a control TLR agonist at 37° C. After 18 hours, cells were analyzed via flow cytometry. Data are presented as median fluorescence intensity of each indicated marker; n=3.
To determine if adjuvant functionalization impacted the capacity of Compound 2 or Compound 1 to elicit immune activation, human antigen presenting cells were stimulated with 10-fold serial dilutions of R848, Compound 2, Compound 1 or a control TLR agonist, CL307, for 18 hours prior to analysis via flow cytometry.

human TLR7 = target: T1, human TLR7 (Homo sapiens, UniProt Q9NYK1); experiment: HEK293 TLR reporter (secreted embryonic alkaline phosphatase) assay; details: 2-fold serial dilutions, 12 hours at 37° C.
T1 construct: expressed in transfected cells; host or cells: HEK293
T1 sequence (Q9NYK1 27-1049): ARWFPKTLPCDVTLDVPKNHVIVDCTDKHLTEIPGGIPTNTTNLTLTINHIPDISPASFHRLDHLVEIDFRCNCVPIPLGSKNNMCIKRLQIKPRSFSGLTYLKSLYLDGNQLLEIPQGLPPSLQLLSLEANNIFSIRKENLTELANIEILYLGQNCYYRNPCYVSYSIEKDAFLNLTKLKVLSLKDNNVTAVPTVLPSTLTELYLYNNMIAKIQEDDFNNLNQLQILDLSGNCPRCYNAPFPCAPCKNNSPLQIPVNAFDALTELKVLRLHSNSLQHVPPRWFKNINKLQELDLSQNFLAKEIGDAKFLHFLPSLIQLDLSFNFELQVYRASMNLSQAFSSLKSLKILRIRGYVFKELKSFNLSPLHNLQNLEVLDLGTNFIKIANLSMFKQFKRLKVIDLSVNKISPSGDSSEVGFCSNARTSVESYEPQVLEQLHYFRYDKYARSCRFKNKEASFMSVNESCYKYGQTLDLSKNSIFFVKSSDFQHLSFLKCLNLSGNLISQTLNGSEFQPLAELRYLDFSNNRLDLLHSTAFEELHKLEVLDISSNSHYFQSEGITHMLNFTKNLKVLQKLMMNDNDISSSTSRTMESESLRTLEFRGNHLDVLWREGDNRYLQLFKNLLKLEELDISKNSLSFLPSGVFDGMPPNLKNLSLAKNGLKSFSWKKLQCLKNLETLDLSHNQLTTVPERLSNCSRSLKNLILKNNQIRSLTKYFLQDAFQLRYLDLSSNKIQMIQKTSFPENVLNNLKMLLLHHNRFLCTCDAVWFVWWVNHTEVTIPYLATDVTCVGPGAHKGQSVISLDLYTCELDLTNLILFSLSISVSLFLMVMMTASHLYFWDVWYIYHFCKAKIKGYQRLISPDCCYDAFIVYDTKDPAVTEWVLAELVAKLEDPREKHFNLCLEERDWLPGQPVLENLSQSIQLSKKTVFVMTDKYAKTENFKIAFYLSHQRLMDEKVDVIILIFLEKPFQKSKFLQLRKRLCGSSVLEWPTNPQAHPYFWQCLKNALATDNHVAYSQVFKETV
Experimental: (§1) HEK293 cells were co-transfected with human TLR7 or TLR8 (top two panels) or murine TLR7 (bottom panel) and an inducible secreted embryonic alkaline phosphatase reporter gene under the control of the IFN-β minimal promoter fused to NF-κB and AP-1 binding sites. Cells were subsequently incubated with 2-fold serial dilutions of the indicated adjuvant for 12 hours at 37° C. Activity was measured by spectrophotometry (OD 650 nm) following addition of alkaline phosphatase substrate.
(§2) Next, the capacity of each functionalized TLR agonist to activate human TLR7 or TLR8 was directly assayed. HEK293 cells were co-transfected with human TLR7 or TLR8 or murine TLR7 and an inducible secreted embryonic alkaline phosphatase reporter gene under the control of the IFN-β minimal promoter fused to NF-κB and AP-1 binding sites. Cells were subsequently incubated with 2-fold serial dilutions of each the indicated adjuvants for 12 hours at 37 C in the presence of an alkaline phosphatase substrate. Activity was measured by spectrophotometry (OD 650 nm).

human TLR8 = target: T2, human TLR8 (Homo sapiens, UniProt Q9NR97); experiment: as above; details: 2-fold serial dilutions, 12 hours at 37° C.
T2 construct: expressed in transfected cells; host or cells: HEK293
T2 sequence (Q9NR97 27-1041): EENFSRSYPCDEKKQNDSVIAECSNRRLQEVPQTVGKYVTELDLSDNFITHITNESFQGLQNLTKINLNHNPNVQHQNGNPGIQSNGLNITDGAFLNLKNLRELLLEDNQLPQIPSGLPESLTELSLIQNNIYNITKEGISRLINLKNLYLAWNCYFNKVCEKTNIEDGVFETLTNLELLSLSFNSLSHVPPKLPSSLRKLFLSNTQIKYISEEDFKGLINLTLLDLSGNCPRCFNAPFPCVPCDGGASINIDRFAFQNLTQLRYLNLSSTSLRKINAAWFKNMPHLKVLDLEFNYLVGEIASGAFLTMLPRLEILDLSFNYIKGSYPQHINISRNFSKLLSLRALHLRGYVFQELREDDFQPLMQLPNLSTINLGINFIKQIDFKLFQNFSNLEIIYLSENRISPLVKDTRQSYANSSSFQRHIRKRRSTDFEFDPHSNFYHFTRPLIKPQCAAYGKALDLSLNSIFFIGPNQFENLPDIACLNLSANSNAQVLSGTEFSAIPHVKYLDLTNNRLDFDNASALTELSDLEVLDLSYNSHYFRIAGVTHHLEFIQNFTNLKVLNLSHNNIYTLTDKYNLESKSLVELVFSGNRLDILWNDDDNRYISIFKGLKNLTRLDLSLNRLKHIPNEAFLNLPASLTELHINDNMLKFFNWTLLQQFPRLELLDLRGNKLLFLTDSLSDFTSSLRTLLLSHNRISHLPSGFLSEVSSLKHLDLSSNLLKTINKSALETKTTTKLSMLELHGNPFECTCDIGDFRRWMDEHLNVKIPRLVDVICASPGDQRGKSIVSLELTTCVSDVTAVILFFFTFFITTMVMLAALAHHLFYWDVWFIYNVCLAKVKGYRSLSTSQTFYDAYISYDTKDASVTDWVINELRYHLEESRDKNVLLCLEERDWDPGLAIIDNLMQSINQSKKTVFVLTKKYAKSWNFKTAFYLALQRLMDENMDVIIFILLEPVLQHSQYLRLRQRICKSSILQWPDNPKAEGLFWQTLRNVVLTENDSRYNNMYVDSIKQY
Experimental: as §1, §2

murine TLR7 = target: T3, murine TLR7 (Mus musculus, UniProt P58681); experiment: as above; details: 2-fold serial dilutions, 12 hours at 37° C.
T3 construct: expressed in transfected cells; host or cells: HEK293
T3 sequence (P58681 27-1050): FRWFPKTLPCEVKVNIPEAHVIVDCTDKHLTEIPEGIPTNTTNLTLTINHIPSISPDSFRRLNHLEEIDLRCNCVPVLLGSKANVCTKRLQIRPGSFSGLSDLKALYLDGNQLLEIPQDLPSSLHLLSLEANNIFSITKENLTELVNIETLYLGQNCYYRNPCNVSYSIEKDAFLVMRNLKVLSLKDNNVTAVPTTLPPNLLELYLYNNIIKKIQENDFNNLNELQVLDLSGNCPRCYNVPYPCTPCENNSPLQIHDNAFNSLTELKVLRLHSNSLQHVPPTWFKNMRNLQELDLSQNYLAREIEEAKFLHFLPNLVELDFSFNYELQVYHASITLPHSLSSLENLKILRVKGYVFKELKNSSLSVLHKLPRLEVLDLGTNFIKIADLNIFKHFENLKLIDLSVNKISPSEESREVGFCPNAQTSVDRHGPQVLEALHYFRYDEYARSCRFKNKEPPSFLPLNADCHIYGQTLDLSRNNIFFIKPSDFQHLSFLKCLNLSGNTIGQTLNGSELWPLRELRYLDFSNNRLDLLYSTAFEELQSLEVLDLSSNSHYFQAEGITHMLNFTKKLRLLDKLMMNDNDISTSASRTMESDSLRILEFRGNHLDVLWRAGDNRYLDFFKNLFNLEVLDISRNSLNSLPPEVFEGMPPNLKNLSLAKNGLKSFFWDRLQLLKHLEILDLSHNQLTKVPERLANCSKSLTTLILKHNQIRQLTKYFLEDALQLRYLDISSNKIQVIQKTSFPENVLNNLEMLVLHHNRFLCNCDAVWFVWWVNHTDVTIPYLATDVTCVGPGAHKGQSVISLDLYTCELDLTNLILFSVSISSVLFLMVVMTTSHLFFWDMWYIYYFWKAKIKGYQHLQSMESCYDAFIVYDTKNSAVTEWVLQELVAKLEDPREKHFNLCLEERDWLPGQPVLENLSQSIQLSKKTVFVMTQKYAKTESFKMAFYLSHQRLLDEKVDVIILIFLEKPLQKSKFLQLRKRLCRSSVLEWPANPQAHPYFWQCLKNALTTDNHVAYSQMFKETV
Experimental: as §1, §2

[2] = test system: human APCs (myeloid cells); experiment: APC-tumor co-culture / myeloid cell stimulation, surface markers by flow cytometry; details: 18 hours of stimulation; compared with the corresponding unconjugated antibody unless the value names another comparator
Source text: (§3) Human antigen presenting cells (APCs) were negatively selected from human peripheral blood mononuclear cells obtained from healthy blood donors (Stanford Blood Center) by density gradient centrifugation using a RosetteSep Human Monocyte Enrichment Cocktail (Stem Cell Technologies) containing monoclonal antibodies against CD2, CD3, CD8, CD19, CD56, CD66b and CD235a. Immature APCs were subsequently purified to >97% purity via negative selection using an EasySep Human Monocyte Enrichment Kit without CD16 depletion containing monoclonal antibodies against CD2, CD3, CD19, CD20, CD56, CD66b, CD123 and CD235a.
Tumor cells were resuspended in PBS with 0.1% fetal bovine serum (FBS) at 1 to 10×10^6 cells/mL. Cells were subsequently incubated with 2 μM CFSE to yield a final concentration of 1 μM. The reaction was ended after 2 minutes via the addition of 10 mL complete medium with 10% FBS and washed once with complete medium. Cells were either fixed in 2% paraformaldehyde and washed three times with PBS or left unfixed prior to freezing the cells in 10% DMSO, 20% FBS and 70% medium.
(§4) 2×10^5 APCs were incubated with or without 6.5×10^5 autologous or allogeneic CFSE-labeled tumor cells in 96-well plates (Corning) containing IMDM medium (Gibco) supplemented with 10% fetal bovine serum, 100 U/mL penicillin, 100 μg/mL streptomycin, 2 mM L-glutamine, sodium pyruvate, non-essential amino acids, 50 μM 2-ME and, where indicated, various concentrations of anti-tumor antibody and the indicated adjuvants. Cells and cell-free supernatants were analyzed after 18 hours via flow cytometry.
as §3, with “[…]” for “CD2, CD3, CD8, CD19, CD56, CD66b”, “[…].” for “CD235a.”, “CD14, CD16, CD40, CD86, CD123,” for “CD2, CD3, CD19, CD20, CD56, CD66b, CD123”
as §4, with “antibody.” for “anti-tumor antibody and the indicated adjuvants.”
(§5) 2×10^5 APCs were incubated with or without 6.5×10^5 allogeneic CFSE-labeled tumor cells in 96-well plates (Corning) containing IMDM medium (Gibco) supplemented with 10% fetal bovine serum, 100 U/mL penicillin, 100 μg/mL streptomycin, 2 mM L-glutamine, sodium pyruvate, non-essential amino acids and, where indicated, various concentrations of unconjugated CD20 antibody, and immunoconjugates of the invention were prepared according to the examples above. Cells and cell-free supernatants were analyzed after 18 hours via flow cytometry or ELISA.

[3] = test system: human APCs (myeloid cells); experiment: Cytokine secretion from human APCs / myeloid cells (cell free supernatants); details: 36 hours of stimulation; compared to equimolar unconjugated antibody
Experimental: After 18 hours, cell free supernatants were analyzed for cytokine secretion via cytokine bead arrays; n=3. P-values≤0.05 depicted by *, P-values≤0.01 depicted by **, P-values≤0.001 depicted by ***, P-values≤0.0001 depicted by ****.
as §4, with “Cells and cell-free supernatants were analyzed after 18 hours via flow cytometry.” left out
While the expression of T cell stimulatory molecules such as CD40, CD86 and HLA-DR is necessary for effective T cell activation, APCs also influence the nature of the ensuing immune response through the secretion of cytokines. Therefore, the capacity of immunoconjugates to elicit cytokine secretion in human APCs following stimulation was investigated as described above.
The capacity of these immunoconjugates to elicit cytokine secretion in human APCs following stimulation was investigated as described in Example 3 above.
as §5, with “Cells and cell-free supernatants were analyzed after 18 hours via flow cytometry or ELISA.” left out

| Molecule | myeloid cell activation (median fluorescence intensity of activation markers) [1] | human TLR7 activation (OD 650 nm) (human TLR7) | human TLR8 activation (OD 650 nm) (human TLR8) | murine TLR7 activation (OD 650 nm) (murine TLR7) | CD16 downregulation on myeloid cells [2] | CD40 upregulation on myeloid cells [2] | CD86 upregulation on myeloid cells [2] | IL-1β secretion from myeloid cells [3] | TNFα secretion from myeloid cells [3] | CD123 upregulation on myeloid cells [2] |
| --- | --- | --- | --- | --- | --- | --- | --- | --- | --- | --- |
| CCCCc1nc2c(N)nc3ccccc3c2n1CCCCN1C(=O)C=CC1=O [Compound 2] | performed similarly to R848; also recorded: potent inducer of myeloid cell activation | specific for TLR7 activity | specific for TLR7 activity | activated murine TLR7 | – | – | – | – | – | – |
| Rituximab-Pam2CSK4 Boltbody | – | – | – | – | superior | superior | superior | superior | superior | – |
| Rituximab-Pam3CSK4 Boltbody | – | – | – | – | superior | superior | superior | superior | superior | superior |
